Assay results from a compilation of properties of binary mixtures (doi:10.1080/00986445.2015.1114477).

Experiment: xn = mol fraction of the nth substance listed
Details: 100 kPa

CCCCCCCCn1cc[n+](C)c1.[Cl-] + CN1CCCC1=O
viscosity [mPa·s]
Details | 288.15 K | 293.15 K | 298.15 K | 303.15 K | 308.15 K | 313.15 K | 318.15 K | 323.15 K | 328.15 K | 333.15 K
x2 = 0.21 | – | 2103 | 1299 | 878 | 619 | 442 | – | – | – | 137.7
x2 = 0.3221 | 1176 | – | – | 384 | 279 | 208 | 156.4 | 120.6 | 94.4 | 76.3
x2 = 0.43 | 560 | 390 | 279 | 207 | 154.3 | 117.6 | 91.2 | 72 | 57.7 | 46.7
x2 = 0.5321 | 204 | 149.8 | 112.3 | 86.1 | 67.1 | 53.3 | – | 35.6 | 29.5 | 24.9
x2 = 0.6343 | 86 | 66.1 | 51.9 | 41.4 | 33.5 | 27.6 | 22.98 | 19 | 16.2 | 14.09
x2 = 0.7195 | 32.3 | 26.2 | 21.09 | 17.68 | – | 12.7 | 10.97 | 9.55 | 8.38 | 7.41
x2 = 0.8143 | 12.78 | 10.86 | 9.32 | 8.08 | 7.07 | 6.24 | – | – | 4.46 | 4.04
x2 = 0.9085 | 5.24 | 4.63 | 4.13 | 3.71 | – | 3.05 | 2.79 | 2.57 | 2.377 | 2.211

CCCCCC[n+]1ccn(C)c1.[Cl-] + CN1CCCC1=O
viscosity [mPa·s]
Details | 288.15 K | 293.15 K | 298.15 K | 303.15 K | 308.15 K | 313.15 K | 318.15 K | 323.15 K | 328.15 K | 333.15 K
x2 = 0.2211 | 2552 | 1609 | – | 699 | – | 342 | 247 | 186 | 140.1 | 109.4
x2 = 0.3181 | 1037 | 687 | – | 329 | 239 | 176 | 132.3 | – | 79.8 | 63.8
x2 = 0.4223 | 406 | – | 207 | – | 115.1 | 87.7 | 68.5 | – | – | 36.7
x2 = 0.5271 | 167.3 | 123.1 | – | 71.4 | 55.9 | 45.3 | 36.7 | 30.2 | 25.1 | 21.19
x2 = 0.6327 | 63.8 | 49.7 | 39.4 | 31.7 | 26 | – | 17.7 | 15.13 | 13.09 | 11.35
x2 = 0.718 | 29.2 | 23.7 | – | 16.08 | – | – | 10.04 | 8.75 | – | 6.77
x2 = 0.8139 | 11.44 | 9.86 | – | 7.37 | – | 5.71 | 5.08 | 4.55 | 4.07 | 3.68
x2 = 0.9083 | 4.69 | 4.16 | 3.72 | 3.35 | 3.04 | – | 2.55 | 2.353 | 2.185 | –
